Earlier results on one compound are cited in patent US20040009537A1, “Methods of modulating and of identifying agents that modulate intracellular calcium” (priority 2002, published 2004).

The data set concerns HeLa cells. Conditions: HeLa cells treated with histamine; decrease from about 60-400 μM.

The structures appear in SMILES notation.

As to `NCCc1c[nH]cn1` [histamine], the ER free calcium is 1 to 50 µM.
